Experimental findings from patent US20240316079A1, “USE OF AKR1C3-ACTIVATED COMPOUND” (OBI PHARMA, INC., priority 2021, published 2024) are described below.

In data set [1] the target is T1, recombinant human AKR1C4 (Homo sapiens, UniProt P17516).
T1 construct: purchased Sigma
The data set can be described thus: Incubation of 3424 with AKR1C4 (2660 production, LC-MS/MS). Format: biochemical.

Data set [2] has as its system SNU-449. Put plainly: In vitro proliferation assay, liver cancer cell line SNU-449. Format: cell-based. The conditions noted are these: Homo sapiens, 96 hours of drug exposure, AKR1C3 protein high, read-out: 3424 IC50. The protocol:
(§1) IC50 was calculated as described above.

For data set [3], the system named is PLC/PRF/5. The data set can be described thus: In vitro proliferation assay, liver cancer cell line PLC/PRF/5. Format: cell-based. The conditions noted are these: Homo sapiens, 96 hours of drug exposure, AKR1C3 protein Medium, read-out: 3424 IC50. The protocol: as §1
Data set [4] has as its system NCI-H522. The data set can be described thus: In vitro proliferation assay, NSCLC cell line NCI-H522. Format: cell-based. The conditions noted are these: Homo sapiens, 72 hours of drug exposure, read-out: 3424 IC50. The protocol: as §1
Data set [5] addresses T2, recombinant human AKR1C1 (Homo sapiens, UniProt Q04828).
T2 construct: purchased Sigma
Put plainly: Incubation of 3424 with AKR1C1 (2660 production, LC-MS/MS). Format: biochemical.

The test system of data set [6] is NCI-H1563. The data set can be described thus: In vitro proliferation assay, NSCLC cell line NCI-H1563. The following applies: Homo sapiens, 72 hours of drug exposure, read-out: 3424 IC50. Format: cell-based. The procedure:
as §1

For data set [7], the system named is SNU-398. The data set can be described thus: In vitro proliferation assay, liver cancer cell line SNU-398. The following applies: Homo sapiens, 96 hours of drug exposure, AKR1C3 protein Low, read-out: 3424 IC50. Format: cell-based. The procedure: as §1
Data set [8] deals with LU2057 PDX. Put plainly: Lung cancer PDX model LU2057 (low AKR1C3). Format: in vivo, mice. The protocol: (§2) Anti-tumor activity of 3424 in PDX models was assessed at CrownBio Bioscience (Beijing, China) Inc. using female BALB/c nude mice (6-7 weeks old, Beijing Anikeeper Biotech Co., Ltd, Beijing, China). Tumor fragments (PA1280, GA6201, LU2057 and LU2505) from stock mice inoculated with selected primary human cancer tissues (pancreatic, gastric cancer, and lung) were harvested and used for inoculation into BALB/c nude mice. Each mouse was inoculated subcutaneously for tumor development. Mice were allocated randomly into experimental groups when the average tumor size reached ˜100 mm^3) by using StudyDirector™ Ver 3.1.399.19 (Studylog Systems, Inc., S. San Francisco, CA, USA). Prodrug 3424 was administered IV at the indicated doses with a regimen of Q7D×3. Each group consisted of 5-6 mice. The grouping day was denoted as Day 0. Prodrug 3424 was administrated to the tumor-bearing mice from Day 0 through Days as indicated for each study.

The subject of data set [9] is GA6201 PDX. Put plainly: Gastric cancer PDX model GA6201. Format: in vivo, mice. The procedure: as §2
In data set [10] the test system is SNU-387. Put plainly: In vitro proliferation assay, liver cancer cell line SNU-387. The following applies: Homo sapiens, 96 hours of drug exposure, AKR1C3 protein Medium, read-out: 3424 IC50. Format: cell-based. The protocol:
as §1

Data set [11] relates to VCaP xenograft. Put plainly: Castration-resistant prostate cancer VCaP xenograft model. The procedure: Death and observed clinical signs were recorded on the basis of the numbers of animals within each subset.

T2 sequence (Q04828 whole entry): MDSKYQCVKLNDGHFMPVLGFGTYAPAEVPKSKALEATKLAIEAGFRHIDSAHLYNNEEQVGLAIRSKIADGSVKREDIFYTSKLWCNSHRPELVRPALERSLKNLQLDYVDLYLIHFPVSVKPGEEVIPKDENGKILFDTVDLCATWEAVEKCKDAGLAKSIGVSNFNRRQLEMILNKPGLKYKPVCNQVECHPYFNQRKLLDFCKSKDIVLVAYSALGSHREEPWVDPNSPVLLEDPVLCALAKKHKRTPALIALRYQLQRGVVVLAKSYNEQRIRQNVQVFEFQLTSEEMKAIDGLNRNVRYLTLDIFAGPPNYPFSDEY
T1 sequence (P17516 whole entry): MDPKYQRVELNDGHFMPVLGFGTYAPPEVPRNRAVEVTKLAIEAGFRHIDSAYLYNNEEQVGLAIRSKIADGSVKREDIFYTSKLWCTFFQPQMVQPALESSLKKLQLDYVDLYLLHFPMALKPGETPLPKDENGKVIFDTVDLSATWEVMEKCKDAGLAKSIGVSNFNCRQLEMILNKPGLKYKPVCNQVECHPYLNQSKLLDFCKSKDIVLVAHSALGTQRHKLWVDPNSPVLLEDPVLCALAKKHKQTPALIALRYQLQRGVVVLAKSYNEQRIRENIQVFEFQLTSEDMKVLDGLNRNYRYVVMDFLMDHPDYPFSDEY

Usually IC50 stands for the concentration that gives 50% inhibition. Turning to `C[C@H](OP(=O)(N1CC1)N1CC1)c1ccc([N+](=O)[O-])c(Oc2cccc(C(=O)N(C)C)c2)c1` [Compound 3424, (S)-1-(3-(3-N,N-dimethylaminocarbonyl)phenoxyl-4-mtrophenyl)-1-ethyl-N,N′-bis(ethylene)phosphoramidate], the “metabolism by AKR1C4” value in data set [1] is “not metabolized”. Moreover, the “2660 Concentration” value in data set [1] (3424 concentration 50 μM, incubation with AKR1C4, BQL: below quantification limit (0.25 ng/mL)) is “BQL”; in data set [5] (3424 concentration 50 μM, incubation with AKR1C1, BQL: below quantification limit (0.25 ng/mL)) it was “BQL”. In addition, the IC50 is 45 nM in data set [2]; 167 nM in data set [3]; > 1000 nM in [4]; 2.5 nM in data set [6]; > 1000 nM in [7]; 103 nM in [10]. Further, the “metabolism by AKR1C1” value in [5] is reported as “not metabolized”. The TGI in data set [8] (3424 2.5 mg/kg i.v. Q7D × 3) is recorded as −20.9%; in data set [9] (3424 5 mg/kg i.v. Q7D × 3) it was 110%; in [11] (3424 5 mg/kg weekly IV for 5 doses, castrated male BALB/c nude mice), 148%. Besides, the “tolerability / body weight loss” value was “no body weight loss” in [8] (LU2057, all tested doses) and “no body weight loss” in data set [9] (GA6201, all tested doses). Further, in data set [9] (3424 5 mg/kg, at the end of the study), the “mice remaining tumor free” value was 60%. In data set [11] (VCaP model, data not shown), the “tolerability / body weight loss during treatment” value was “no significant body weight loss”.
